Measurements: PMC3549755, “A comparison of the ability of rilpivirine (TMC278) and selected analogues to inhibit clinically relevant HIV-1 reverse transcriptase mutants” (Retrovirology, 2012)
Read-outs that look alike come from different tables or passages of the source.

Columns and labels:
[1] = test system: viral vector with Y188L mutant HIV-1 RT; assay: single-round infectivity assay, luciferase reporter, Y188L RT vector; assay type: cell-based; conditions: Human immunodeficiency virus 1; HOS cells, reduction of luciferase reporter activity, SD in parentheses
Source text: (§1) We examined the effects of rilpivirine and the analogues on HIV-1 replication using a previously described assay and report the concentrations at which luciferase reporter activity was reduced by half relative to uninhibited controls (EC50) with standard deviations in parentheses. In the assay, viral vectors that replicate using WT HIV reverse transcriptase or one of several mutants (L100I, K103N, V106A, E138K, Y181C, Y188L, H221Y and the double mutant K103N/Y181C) were used to infect cells in a single round assay. These mutants were chosen either because they are known NNRTI resistance mutations (L100I, K103N, Y181C, and the K103N/Y181C double mutant), they were selected in patients in rilpivirine clinical trials (E138K and H221Y), or they are positioned to make significant Van der Waals contacts with rilpivirine (V106A and Y188L). All compounds were initially screened against a panel that included at least one RT mutant from all three groups (WT, K103N, E138K, Y181C and Y188L). The cytotoxicity of the compounds was also determined to establish the therapeutic index of each of the compounds.
(§2) Procedures for virion production and cell-based assay have been reported. Briefly, all cell cultures were maintained in Dulbecco’s modified Eagle’s medium (Invitrogen, Carlsbad, CA) with 5% (v/v) fetal bovine serum, 5% newborn calf serum, penicillin (50 units/mL) and streptomycin (50 μg/mL) (Quality Biological, Gaithersburg, MD). […]. Transfected cells were incubated at 37°C for 8 hrs, washed twice with PBS, fresh media was added and the cells were returned to the incubator for 48 hrs. The pNLNgoMIVR^+ΔEnv.LUC plasmid encodes the HIV-1 genome with an Env deletion and either WT HIV-1 RT, or one of the following mutants: L100I, K103N, V106A, E138K, Y181C, Y188L, H221Y, or K103N/Y181C. Supernatants from each plate were clarified by low-speed centrifugation (3,000xg for 20 min), then treated with 200 U DNase I (Roche Applied Science, Mannheim, Germany) at room temperature for 3 hours. Viral supernatants were stored at −20°C until used.
(§3) One day prior to infection, 100 μL of human osteosarcoma (HOS) cells were added to each well of a 96-well plate at a density of 4x10^4 cells/mL. Plates were incubated overnight at 37°C. On the day of infection, 10X drug stocks were prepared by serial dilution in media from an initial 10 mM stock solution in DMSO. Cells in the 96-well plate were pre-treated by the addition of 22 μL of the appropriate drug stock and returned to the incubator for 3 hours. Thawed virus stocks were diluted 1:2 in media, then 100 μL of virus was added to the pre-treated cells, bringing the final drug concentrations to 0.1 nM to 100 nM, with DMSO-treated cells (no drug) serving as a reference. In addition, 12 wells of cells treated with media and no virus served as negative controls. Plates were returned to the incubator for an additional 42 hours, at which time the luciferase activity was determined using Steady-Lite Plus kits (PerkinElmer, Waltham, MA). Background luciferase activity, as measured for the negative controls, was subtracted from the activities measured for each infected well. Drug-free, DMSO-treated wells were normalized to 100% infectivity. Infectivity at each drug concentration was determined as a percentage of these drug-free infections. Drug concentration versus percent infectivity was plotted for each RT-inhibitor combination, and the data were fit to a four-parameter sigmoidal curve using KaleidaGraph 4.0 (Synergy Software, Reading, PA). The inflection point of each curve is reported as the IC50. All values are the mean of triplicate infections.

[2] = test system: viral vectors that replicate using WT HIV reverse transcriptase; assay: single-round infectivity assay, luciferase reporter, vector with WT RT; assay type: cell-based, HIV-1; conditions: SD in parentheses
Source text: as §1, §2, §3

[3] = test system: viral vector with E138K mutant HIV-1 RT; assay: single-round infectivity assay, luciferase reporter, E138K RT vector; assay type: cell-based; conditions: for EC50: Human immunodeficiency virus 1, HOS cells, reduction of luciferase reporter activity, SD in parentheses
Source text: as §1, §2, §3

[4] = cytotoxicity assay (ATP-Lite cell viability); assay type: cell-based, human; conditions: human, HOS cells, 48 hours, SD in parentheses
Method: (§4) One day prior to treatment, HOS cells were prepared in 96-well plates as described for the infectivity assays, except that 12 wells per plate were treated with cell-free media to serve as negative controls. The following day, serial dilutions of drug stocks were prepared in media from 10 mM stocks in DMSO. Each well received 11 μL of the appropriate drug concentration or DMSO-treated, drug-free media. Final drug concentrations ranged from 0.5 μM to 300 μM. The drug-free wells served as references. Plates were then incubated at 37°C for 48 hours. Cell viability was determined using luciferase reporter ATP-Lite kits (PerkinElmer). As described for the infectivity assays, drug-free reference wells were normalized to 100%, and viabilities at different drug concentrations were determined as a percentage of these references. Data were plotted and analyzed in the same manner as the IC50 data, with the inflection points of the curves reported as CC50.

HOS cells = assay: cytotoxicity assay (ATP-Lite cell viability); assay type: cell-based, human; conditions: for Therapeutic Index (T.I.): ratio of CC50/EC50 (WT)
Method: as §4

[5] = test system: viral vector with K103N mutant HIV-1 RT; assay: single-round infectivity assay, luciferase reporter, K103N RT vector; assay type: cell-based; conditions: Human immunodeficiency virus 1; HOS cells, reduction of luciferase reporter activity, SD in parentheses
Source text: as §1, §2, §3

[6] = test system: viral vector with Y181C mutant HIV-1 RT; assay: single-round infectivity assay, luciferase reporter, Y181C RT vector; assay type: cell-based; conditions: Human immunodeficiency virus 1; HOS cells, reduction of luciferase reporter activity, SD in parentheses
Source text: as §1, §2, §3

[7] = test system: viral vector with H221Y mutant HIV-1 RT; assay: single-round infectivity assay, luciferase reporter, H221Y RT vector; assay type: cell-based; conditions: Human immunodeficiency virus 1; broader panel, SD in parentheses
Source text: as §1, §2, §3

[8] = test system: viral vector with L100I mutant HIV-1 RT; assay: single-round infectivity assay, luciferase reporter, L100I RT vector; assay type: cell-based; conditions: Human immunodeficiency virus 1; broader panel, SD in parentheses
Source text: as §1, §2, §3

[9] = test system: viral vector with V106A mutant HIV-1 RT; assay: single-round infectivity assay, luciferase reporter, V106A RT vector; assay type: cell-based; conditions: Human immunodeficiency virus 1; broader panel, SD in parentheses
Source text: as §1, §2, §3

[10] = test system: viral vector with K103N/Y181C double mutant HIV-1 RT; assay: single-round infectivity assay, luciferase reporter, K103N/Y181C RT vector; assay type: cell-based; conditions: for EC50: Human immunodeficiency virus 1, broader panel, SD in parentheses
Source text: as §1, §2, §3

[11] = Human immunodeficiency virus 1, HOS, HOS cells, reduction of luciferase reporter activity, read-out: EC50 WT
[12] = Human immunodeficiency virus 1, broader panel table, read-out: EC50 WT (Table S1)

SMILES: Cc1cc(/C=C/C#N)cc(C)c1Nc1nc(Nc2ccc(C(F)(F)F)cc2)c2nc[nH]c2n1 [Analogue 15]
- EC50 [1]: 17 nM
- EC50 [2, 11]: 1.5 nM
- EC50 [3]: 4.7 nM
- CC50 at 48 h [4]: 17 µM
- Therapeutic Index (T.I.) (HOS cells): 1.1x10^4
- EC50 [5]: 0.9 nM
- EC50 [6]: 3.3 nM

SMILES: Cc1cc(/C=C/C#N)cc(C)c1Nc1ncc(N)c(Nc2ccc(C#N)cc2)n1 [Analogue 9]
- EC50 [7]: 2.8 nM
- EC50 [1]: 18 nM
- EC50 [2, 12]: 0.7 nM
- EC50 [8]: 0.5 nM
- EC50 [3]: 2.6 nM
- CC50 at 48 h [4]: 19 µM
- Therapeutic Index (T.I.) (HOS cells): 2.7x10^4
- EC50 [9]: 0.9 nM
- EC50 [5]: 0.7 nM
- EC50 fold greater than that of 7 against K103N/Y181C [10]: ~ 21 fold
- EC50 [10]: 47 nM
- fold resistance / loss of potency against K103N/Y181C double mutant ([10]; relative to WT): ~ 67 fold
- EC50 [6]: 4.6 nM

SMILES: Cc1cc(/C=C/C#N)cc(C)c1Nc1nc(Nc2ccc3c(c2)CCC3)c2nc[nH]c2n1 [Analogue 23]
- EC50 [1]: > 100 nM
- EC50 [2, 11]: 0.4 nM
- EC50 [3]: 7.9 nM
- CC50 at 48 h [4]: 30 µM
- Therapeutic Index (T.I.) (HOS cells): 7.5x10^4
- EC50 [5]: 1.7 nM
- EC50 [6]: 4.1 nM

SMILES: COc1ccc(Nc2nc(Nc3c(C)cc(/C=C/C#N)cc3C)nc3[nH]cnc23)cc1 [Analogue 16]
- EC50 [1]: 29 nM
- EC50 ([2]; HOS cells, reduction of luciferase reporter activity, read-out: EC50 WT): 0.4 nM
- EC50 [2, 11]: 0.2 nM
- EC50 [3]: 1.1 nM
- CC50 at 48 h [4]: 12 µM
- Therapeutic Index (T.I.) (HOS cells): 6.0x10^4
- EC50 [5]: 0.2 nM
- EC50 [6]: 2.3 nM

SMILES: Cc1cc(/C=C/C#N)cc(C)c1Nc1nc(Nc2ccc(C#N)cc2)ncc1N [Analogue 7]
- EC50 [7]: 0.9 nM
- EC50 [1]: 2.3 ± 0.1 nM
- EC50 [2, 12]: 0.2 nM
- EC50 [8]: 0.1 nM
- EC50 [3]: 1.3 nM
- loss of potency against E138K ([3]; compared with rilpivirine (1)): four- to fourteen-fold
- CC50 at 48 h [4]: 50 µM
- CC50 (HOS cells; HOS cells, 48 hours, SD in parentheses): > 38 µM
- Therapeutic Index (T.I.) (HOS cells): 2.5x10^5
- EC50 [9]: 0.1 nM
- EC50 [5]: 0.3 nM
- EC50 [10]: 2.2 nM
- EC50 [6]: 1.1 nM

SMILES: COc1ccc(Cn2cnc3c(Nc4c(C)cc(/C=C/C#N)cc4C)nc(Nc4ccc(C#N)cc4)nc32)cc1 [Analogue 10]
- EC50 [1]: > 100 nM
- EC50 [2, 11]: 1.1 nM
- EC50 [3]: 14 nM
- CC50 at 48 h [4]: 154 µM
- Therapeutic Index (T.I.) (HOS cells): 1.4x10^5
- EC50 [5]: 1 nM
- EC50 [6]: 9.5 nM

SMILES: Cc1cc(/C=C/C#N)cc(C)c1Nc1nc(Nc2ccc(F)cc2)c2nc[nH]c2n1 [Analogue 17]
- EC50 [1]: 15 nM
- EC50 [2, 11]: 1.7 nM
- EC50 [3]: 3.1 nM
- CC50 at 48 h [4]: 12 µM
- Therapeutic Index (T.I.) (HOS cells): 7.1x10^3
- EC50 [5]: 1.3 nM
- EC50 [6]: 2 nM

SMILES: COc1ccc(Cn2cnc3c(Nc4ccc(C#N)cc4)nc(Nc4c(C)cc(/C=C/C#N)cc4C)nc32)cc1 [Analogue 12]
- EC50 [1]: 12 nM
- EC50 [2, 11]: 2.7 nM
- EC50 [3]: 15 nM
- CC50 at 48 h [4]: 83 µM
- Therapeutic Index (T.I.) (HOS cells): 3.1x10^4
- EC50 [5]: 1.9 nM
- EC50 [6]: 6.5 nM
